Among the data in patent US9505742B2, “3,4-dihydro-2H-isoquinoline-1-one and 2,3-dihydro-isoindol-1-one compounds” (Hoffmann-La Roche Inc., priority 2013, dated 2016) are EC50 values, retold here.

The target in one assay is T1, human CYP11B2 (Homo sapiens, UniProt P19099).
T1 construct: The expression plasmids contains the ORF for either human/cyno CYP11B1 or CYP11B2; expressed in transfected cells
T1 sequence (P19099 25-503): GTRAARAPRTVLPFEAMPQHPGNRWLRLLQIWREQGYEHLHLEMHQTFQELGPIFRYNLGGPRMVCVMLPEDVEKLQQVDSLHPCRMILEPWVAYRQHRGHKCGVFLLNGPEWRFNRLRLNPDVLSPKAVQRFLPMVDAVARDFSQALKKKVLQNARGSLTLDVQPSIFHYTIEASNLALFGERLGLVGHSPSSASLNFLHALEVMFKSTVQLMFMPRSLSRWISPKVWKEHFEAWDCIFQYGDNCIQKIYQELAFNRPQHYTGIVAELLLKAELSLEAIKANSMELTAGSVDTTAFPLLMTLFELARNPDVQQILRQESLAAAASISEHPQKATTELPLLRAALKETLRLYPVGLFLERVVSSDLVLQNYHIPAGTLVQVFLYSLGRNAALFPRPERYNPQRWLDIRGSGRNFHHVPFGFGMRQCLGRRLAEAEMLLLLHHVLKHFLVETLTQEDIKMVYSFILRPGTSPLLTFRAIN
In words: G-402 cellular enzyme assay, human CYP11B2 (aldosterone release, HTRF). Type of assay: cell-based. Particulars: G-402 cells expressing human CYP11B2; 1 μM Deoxycorticosterone. From the text: (§1) Herein we identified the use of the G-402 cell line as a host cell to ectopically express (transiently or stably) enzymes of the CYP11 family. Specifically we developed stable G-402 cells expressing ectopically human CYP11B1, human CYP11B2, human CYP11A1, cynmolgus CYP11B1 or cynomolgus CYP11B2 enzyme activity. Importantly the identified cell line G-402 expresses co-factors (adrenodoxin and adrenodoxin reductase) important for the activity of the CYP11 family and no relevant enzyme activity of the CYP11 family (in comparison to H295R cells) was detected in these cells. Therefore the G-402 cell line is uniquely suited as a host cell for the ectopic expression of enzymes from the CYP11 family. G-402 cells can be obtained from ATCC (CRL-1440) and were originally derived from a renal leiomyoblastoma.
(§2) The expression plasmids contains the ORF for either human/cyno CYP11B1 or CYP11B2 under the control of a suitable promoter (CMV-promoter) and a suitable resistance marker (neomycin). Using standard techniques the expression plasmid is transfected into G-402 cells and these cells are then selected for expressing the given resistance markers. Individual cell-clones are then selected and assessed for displaying the desired enzymatic activity using 11-Deoxycorticosterone (Cyp11B2) or 11-Deoxycortisol (Cyp11B) as a substrate.
(§3) G-402 cells expressing CYP11 constructs were established as described above and maintained in McCoy's 5a Medium Modified, ATCC Catalog No. 30-2007 containing 10% FCS and 400 μg/ml G418 (Geneticin) at 37° C. under an atmosphere of 5% CO2/95% air. Cellular enzyme assays were performed in DMEM/F12 medium containing 2.5% charcoal treated FCS and appropriate concentration of substrate (0.3-10 uM 11-Deoxycorticosterone, 11-Deoxycortisol or Corticosterone). For assaying enzymatic activity, cells were plated onto 96 well plates and incubated for 16 h. An aliquot of the supernatant is then transferred and analyzed for the concentration of the expected product (Aldosterone for CYP11B2; Cortisol for CYP11B1). The concentrations of these steroids can be determined using HTRF assays from CisBio analyzing either Aldosterone or Cortisol.
(§4) Inhibition of the release of produced steroids can be used as a measure of the respective enzyme inhibition by test compounds added during the cellular enzyme assay. The dose dependent inhibition of enzymatic activity by a compound is calculated by means of plotting added inhibitor concentrations (x-axes) vs. measured steroid/product level (y-axes). The inhibition is then calculated by fitting the following 4-parameter sigmoidal function (Morgan-Mercer-Flodin (MMF) model) to the raw data points using the least squares method:
(§5) [formula] wherein, A is the maximum y value, B is the EC50 factor determined using XLFit, C is the minimum y value and D is the slope value.
(§6) EC50 values for compounds claimed herein were tested with the G402-based assay system described. Cyp11B2 enzyme activity was tested in presence of 1 μM Deoxycorticosterone and variable amounts of inhibitors; Cyp11B1 enzyme activity was tested in presence of 1 μM Deoxycortisol and variable amounts of inhibitors.
Background: TR-FRET usually uses a lanthanide donor and a delayed reading to cut background.

In another assay the target is T2, human CYP11B1 (Homo sapiens, UniProt P15538).
T2 construct: The expression plasmids contains the ORF for either human/cyno CYP11B1 or CYP11B2; expressed in transfected cells
T2 sequence (P15538 25-503): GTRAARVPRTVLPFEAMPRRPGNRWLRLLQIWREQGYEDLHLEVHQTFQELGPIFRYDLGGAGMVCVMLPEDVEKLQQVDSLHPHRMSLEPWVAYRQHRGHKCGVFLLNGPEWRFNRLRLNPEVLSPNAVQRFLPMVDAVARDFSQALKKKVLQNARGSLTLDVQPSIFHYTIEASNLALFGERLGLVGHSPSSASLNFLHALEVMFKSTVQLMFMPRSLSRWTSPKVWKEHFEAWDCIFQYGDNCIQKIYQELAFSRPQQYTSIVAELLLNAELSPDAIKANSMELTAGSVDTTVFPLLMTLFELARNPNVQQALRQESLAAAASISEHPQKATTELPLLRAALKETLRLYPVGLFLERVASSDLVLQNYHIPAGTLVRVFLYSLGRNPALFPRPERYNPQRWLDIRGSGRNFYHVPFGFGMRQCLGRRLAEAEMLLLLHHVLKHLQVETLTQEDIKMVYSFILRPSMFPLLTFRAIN
Briefly: G-402 cellular enzyme assay, human CYP11B1 (cortisol release, HTRF). The assay is classed as cell-based. Particulars: G-402 cells expressing human CYP11B1; 1 μM Deoxycortisol.
Text: as §1, §2, §3, §4, §5, §6

For orientation: EC50 means the concentration at which the effect is half-maximal. Read a high EC50 as weaker potency. On to `CC(C)S(=O)(=O)N1CCC(c2cncc(N3C(=O)c4ccc(Cl)cc4[C@@H]3C)c2)CC1` (single isomer, unassigned) [Example 27, (−)-(3S or 3R)-5-chloro-3-methyl-2-[5-(1-propan-2-ylsulfonylpiperidin-4-yl)pyridin-3-yl]-3H-isoindol-1-one], for which the results for the EC50 on human CYP11B2 and at human CYP11B1 were 1 nM and 523 nM, respectively.
The corresponding values for `CC(C)S(=O)(=O)N1CCC(c2cncc(N3C(=O)c4ccc(Cl)cc4C3(C)C)c2)CC1` [Example 16, 5-Chloro-3,3-dimethyl-2-[5-(1-propan-2-ylsulfonylpiperidin-4-yl)pyridin-3-yl]isoindol-1-one] are 4 nM and 1190 nM.
Turning to `CC(C)S(=O)(=O)N1CCC(F)(c2cncc(N3C(=O)c4ccc(Cl)cc4C3(C)C)c2)CC1` [Example 31, 5-Chloro-2-[5-(4-fluoro-1-propan-2-ylsulfonylpiperidin-4-yl)pyridin-3-yl]-3,3-dimethylisoindol-1-one], the values for the EC50 at human CYP11B2 and at human CYP11B1 were 1.5 nM and 772 nM, respectively.
The corresponding values for `CCC(=O)N1CCC(c2cncc(N3C(=O)c4ccc(Cl)cc4C3(C)C)c2)CC1` [Example 1, 5-Chloro-3,3-dimethyl-2-[5-(1-propanoylpiperidin-4-yl)pyridin-3-yl]isoindol-1-one] are 5 nM and 238 nM.
In the same order, the values of `CC1(C)c2cc(Cl)ccc2C(=O)N1c1cncc(C2CCCN(S(C)(=O)=O)C2)c1` (single isomer, unassigned; (+)) [Example 5, (+)-5-chloro-3,3-dimethyl-2-[5-[(3R or 3S)-1-methylsulfonylpiperidin-3-yl]pyridin-3-yl]isoindol-1-one] are 5 nM and 213 nM.
The corresponding values for `COc1ccc2c(n1)C(C)(C)N(c1cncc(C3CCN(C(=O)c4cnn(C)c4)CC3)c1)C2=O` [Example 47, 2-Methoxy-7,7-dimethyl-6-[5-[1-(1-methylpyrazole-4-carbonyl)-4-piperidyl]-3-pyridyl]pyrrolo[3,4-b]pyridin-5-one] are 41 nM and 573 nM.
On to `CC1(C)c2cc(Cl)ccc2C(=O)N1c1cncc(C2CCN(S(=O)(=O)C3CC3)C2)c1` (single isomer, unassigned; (-)) [Example 13, (−)-5-chloro-2-[5-[(3S or 3R)-1-cyclopropylsulfonylpyrrolidin-3-yl]pyridin-3-yl]-3,3-dimethylisoindol-1-one], for which the EC50 at human CYP11B2 is 19 nM; at human CYP11B1, 957 nM.
In the same order, the values of `CCS(=O)(=O)N1CCC(F)(c2cncc(N3C(=O)c4ccc(OC)nc4C3(C)C)c2)CC1` [Example 40, 6-[5-(1-Ethylsulfonyl-4-fluoro-4-piperidyl)-3-pyridyl]-2-methoxy-7,7-dimethyl-pyrrolo[3,4-b]pyridin-5-one] are 19 nM and 2420 nM.
Turning to `CCS(=O)(=O)N1CCC(c2cncc(N3Cc4cc(Cl)ccc4C3=O)c2)CC1` [Example 21, 5-Chloro-2-[5-(1-ethylsulfonylpiperidin-4-yl)pyridin-3-yl]-3H-isoindol-1-one], the EC50 on human CYP11B2 amounted to 25 nM; at human CYP11B1, 1050 nM.
With `CCCS(=O)(=O)N1CCC(F)(c2cncc(N3C(=O)c4ccc(OC)nc4C3(C)C)c2)CC1` [Example 43, 6-[5-(4-Fluoro-1-propylsulfonyl-4-piperidyl)-3-pyridyl]-2-methoxy-7,7-dimethyl-pyrrolo[3,4-b]pyridin-5-one], the EC50 on human CYP11B2 stood at 21 nM; at human CYP11B1, 1900 nM.
`CCCS(=O)(=O)N1CCC(c2cncc(N3C(=O)c4ccc(Cl)cc4C3(C)C)c2)CC1` [Example 15, 5-Chloro-3,3-dimethyl-2-[5-(1-propylsulfonylpiperidin-4-yl)pyridin-3-yl]isoindol-1-one]: the EC50 on human CYP11B2 came to 1 nM; at human CYP11B1, 239 nM.
In the same order, the values of `CC1(C)c2cc(Cl)ccc2C(=O)N1c1cncc(C2(F)CCN(S(=O)(=O)C3CC3)CC2)c1` [Example 38, 5-Chloro-2-[5-(1-cyclopropylsulfonyl-4-fluoro-4-piperidyl)-3-pyridyl]-3,3-dimethyl-isoindolin-1-one] are 1 nM and 575 nM.
In the same order, the values of `CC(C)S(=O)(=O)N1CCC(c2cncc(N3C(=O)c4ccc(Cl)cc4[C@H]3C)c2)CC1` (single isomer, unassigned) [Example 26, (+)-(3R or 3S)-5-chloro-3-methyl-2-[5-(1-propan-2-ylsulfonylpiperidin-4-yl)pyridin-3-yl]-3H-isoindol-1-one] are 11 nM and 1620 nM.
The corresponding values for `CC(=O)N1CC(c2cncc(N3C(=O)c4ccc(Cl)cc4C3(C)C)c2)C1` [Example 33, 2-[5-(1-Acetylazetidin-3-yl)pyridin-3-yl]-5-chloro-3,3-dimethylisoindol-1-one] are 148 nM and 4550 nM.
Turning to `CC(C)S(=O)(=O)N1CCC(c2cncc(N3C(=O)c4ccc(Cl)cc4C3(C)C)c2)C1` (single isomer, unassigned; (+)) [Example 10, (+)-5-chloro-3,3-dimethyl-2-[5-[(3R or 3S)-1-propan-2-ylsulfonylpyrrolidin-3-yl]pyridin-3-yl]isoindol-1-one], the concentration giving a half-maximal response (EC50) on human CYP11B2 came to 2 nM; on human CYP11B1, 93 nM.
In the same order, the values of `CCS(=O)(=O)N1CCC(c2cncc(N3C(=O)c4ccc(Cl)cc4C3(C)C)c2)CC1` [Example 2, 5-Chloro-2-[5-(1-ethylsulfonylpiperidin-4-yl)pyridin-3-yl]-3,3-dimethylisoindol-1-one] are 2 nM and 290 nM.
The corresponding values for `CC1(C)c2cc(Cl)ccc2C(=O)N1c1cncc(C2CCN(C(=O)c3ncccc3Cl)CC2)c1` [Example 20, 5-Chloro-2-[5-[1-(3-chloropyridine-2-carbonyl)piperidin-4-yl]pyridin-3-yl]-3,3-dimethylisoindol-1-one] are 8 nM and 488 nM.
The corresponding values for `CCS(=O)(=O)N1CCCC(c2cncc(N3C(=O)c4ccc(Cl)cc4C3(C)C)c2)C1` (centres unmarked) [Example 4, 5-Chloro-2-[5-(1-ethylsulfonylpiperidin-3-yl)pyridin-3-yl]-3,3-dimethylisoindol-1-one] are 6 nM and 605 nM.
In the case of `CC1(C)c2cc(Cl)ccc2C(=O)N1c1cncc(C2CCN(S(=O)(=O)C3CC3)CC2)c1` [Example 17, 5-Chloro-2-[5-(1-cyclopropylsulfonylpiperidin-4-yl)pyridin-3-yl]-3,3-dimethylisoindol-1-one], the EC50 turned out to be 3 nM at human CYP11B2 and 1000 nM at human CYP11B1.
